Experiment: Determination of bio-accumulation: urinary clearance pharmacokinetic study in rats
Type: in vivo, male Sprague Dawley rats
Conditions: 73 micro Moles per kg body weight, oral gavage; for Compound-related Effects: clinical signs, gross necropsy at 96 hours post-dose; for T½ (renal half-life): exponential least squares curve fitting of urine concentration (fluorine NMR); for % Recovery (96 h): parent compound in urine up to 96 h
Excerpt: Animals we observed throughout the study for clinical signs of toxicity.

Compound	Compound-related Effects	T½ (renal half-life) [h]	% Recovery (96 h) [%]
N.O=C(O)C(F)(F)C(F)(F)C(F)(F)C(F)(F)C(F)(F)C(F)(F)C(F)(F)F [Compound C-1, C7F15COONH4, reference compound]	Hepatomegaly	~550	6
N.O=C(O)C(F)(F)C(F)(F)OC(F)(F)C(F)(F)C(F)(F)C(F)(F)F [Compound 4, C4F9—O—CF2—CF2—COONH4]	Hepatomegaly	31	42
N.O=C(O)C(F)(F)C(F)(F)OC(F)(F)C(F)(F)C(F)(F)F [Compound 3, C3F7—O—CF2—CF2—COONH4]		12	82
N.O=C(O)C(F)(F)C(F)(F)OC(F)(F)C(F)(F)F [Compound 2, C2F5—O—CF2—CF2—COONH4]		10	100
N.O=C(O)C(F)(F)C(F)(F)OC(F)(F)F [Compound 1, CF3—O—CF2—CF2—COONH4]		11	100
